The source of these data is PMC10290391, “Targeted degradation of ⍺-synuclein aggregates in Parkinson’s disease using the AUTOTAC technology” (Molecular Neurodegeneration, 2023).

In series [1] the test system is high molecular weight α-syn aggregates. Description: Dot blot / filter trap assay for α-syn aggregates in differentiated SH-SY5Y α-syn A53T cells. In kind it is cell-based, human. The conditions noted are these: 100 nM, 24 h; 450 nm filter. On the procedure: Differentiated SH-SY5Y α-syn A53T cells were treated with 2 μg/ml of a-syn PFFs, and after 24 h cells were treated with 100 nM of ATC161 for 24 h. The cells were lysed in RIPA buffer for 30 min on ice and then centrifuged at 13,000 rpm for 20 min at 4 ℃. The supernatants were aspirated and transferred into a new tube kept on ice. Protein concentration was determined by a BCA assay. The filter trap assay was performed with 5 μg of total protein diluted in 100 μL of lysate. A nitrocellulose membrane (pore size: 0.45 μm) was placed on the filter trap apparatus (96-well Bio-Dot®). Lysates were loaded and allowed to pass through the membrane under vacuum. Aggregated α-syn levels were determined by immunoblotting using an anti-α-syn aggregate antibody [MJFF-14–6-4–2] (1:2000; Abcam, ab209538).

For another series, the target named is T1, p62 and α-syn aggregates (Homo sapiens, UniProt P37840+Q13501).
T1 construct: Recombinant human α-syn (1–140) were obtained from NKMAX (SNA2001L); endogenous in cells; host or cells: HEK293A cells transduced with h-α-syn PFFs
Description: Proximity ligation assay (PLA) of p62 and α-syn in HEK293A cells. The format is cell-based. The conditions noted are these: 1 μM, 6 h. On the procedure:
Proximity ligation assays were conducted using a PLA kit (Sigma-Aldrich) according to the manufacturer’s protocol. 293A Cells were seeded on coverslips and cultured for 24 h. After fixation with 4% PFA, the cells were permeabilized with 0.1% Triton X-100. The cells were incubated with antibodies for p62 (Abcam; ab56319) and alpha-synuclein aggregates (Abcam; ab209538) overnight at 4 °C. After washing with PLA washing buffer, the cells were hybridized, ligated and amplified by rolling circle. Coverslips were mounted on slides using mounting medium containing DAPI, and the images were captured by confocal microscopy (Zeiss).

Series [2] can be described thus: Pharmacokinetic study of ATC161 in male ICR mice. The format is in vivo. On the procedure:
Supplementary file 13024_2023_630_MOESM1_ESM.eps: Additional file 1: Supplementary figure 1. Drug profiles of ATL and Autotac compounds. A, drug profiles of ATL compounds. Tissue concentrations and oral bioavailability were measured in ICR male mice upon 5 mg/kg oral administration of each ATL compound. B, structures of ATC161~164. C, Pharmacokinetic study of ATC161 conducted in male ICR mice otherwise indicated. M.W. represents molecular weight. The plasma exposure and the half-life were determined upon either POor IPATC161 administration. The drug tissue exposure was determined in Tau301L BiFC mice. IV refers to intravenous injection.

Series [3] concerns the target T2, p62 (Homo sapiens, UniProt Q13501).
T2 construct: endogenous in cells; host or cells: HeLa
Description: Western blot of p62 oligomerization in HeLa cells. The format is cell-based. On the procedure:
For the separation of Triton X-100 soluble and insoluble fractions for monitoring α-syn, cells were washed with PBS and lysed in Triton X-100 buffer (50 mM Tris / 150 mM NaCl / 100 mM EDTA / 1% Triton X-100, pH 7.6) containing protease and phosphatase inhibitors for 30 min on ice. The lysates were centrifuged at 12,000 rpm for 30 min, and the soluble supernatant was taken. The remaining pellets were washed with Triton X-100 buffer, followed by centrifugation at 12,000 rpm for 20 min. The supernatants were discarded, and the resulting insoluble pellets were resuspended in laemli buffer containing 1% SDS. Samples were subjected to SDS-PAGE. After blocking with 5% milk and washing process, the membranes were incubated with primary antibodies overnight at 4 °C, followed by washing with PBS-T and incubation with horseradish peroxidase-conjugated secondary antibodies. Immunoreactive bands were detected using ECL reagents (Thermo Fisher Scientific, 32,106). For non-reducing SDS-PAGE, cell lysates were mixed with 4 × laemli buffer containing no 2-mercaptoethanol. For reducing SDS-PAGE, cells were lysed by RIPA buffer (150 mM NaCl, 1% Triton X-100, 1% sodium deoxycholate, 0.1% Tris–HCl, pH 7.5, 2 mM EDTA) and prepared with 5 × protein sample buffer containing 2-mercaptoethanol (Elpis Biotech, EBA-1052). Densitometry of developed bands was analyzed with ImageJ (NIH, Bethesda).

For series [4], the target named is T3, p62 (Mus musculus, UniProt Q64337).
T3 construct: endogenous in cells; host or cells: wild-type and p62-/- MEFs (Keiji Tanaka's laboratory)
T3 sequence (Q64337 whole entry): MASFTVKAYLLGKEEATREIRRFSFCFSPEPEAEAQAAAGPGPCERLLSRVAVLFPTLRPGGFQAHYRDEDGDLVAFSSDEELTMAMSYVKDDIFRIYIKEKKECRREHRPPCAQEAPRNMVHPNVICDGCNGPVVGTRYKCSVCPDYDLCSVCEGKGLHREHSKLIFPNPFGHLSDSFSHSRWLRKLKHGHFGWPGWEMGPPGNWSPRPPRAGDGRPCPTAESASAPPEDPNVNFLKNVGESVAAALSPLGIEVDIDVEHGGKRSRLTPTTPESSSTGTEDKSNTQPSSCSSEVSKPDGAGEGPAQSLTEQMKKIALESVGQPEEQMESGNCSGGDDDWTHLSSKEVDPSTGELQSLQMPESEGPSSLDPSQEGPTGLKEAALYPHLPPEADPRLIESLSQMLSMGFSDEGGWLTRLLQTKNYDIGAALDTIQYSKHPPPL
The series can be described thus: Western blot in wild-type and p62-/- MEFs transduced with α-syn PFFs. To be noted: 1 μM, 12 h. In kind it is cell-based. The source says:
Wild type human neuroblastoma cells (SH-SY5Y) and Hela were obtained from Korean Cell Line Bank. SH-SY5Y α-syn A53T cells, COS7 cells and 293A cell line were kindly gifted from S.J.L. lab. COS7 cells, 293A cells, wild-type and p62^−/− MEF cells, and wild type or A53T mutant α-syn SH-SY5Y cells were maintained in Dulbecco’s Modified Eagle’s Medium (DMEM) containing 10% fetal bovine serum (FBS). Wild-type and p62^−/− MEFs were obtained from Keiji Tanaka’s laboratory (Tokyo Metropolitan Research Institute, Japan). Cells were incubated at 37 °C in a 5% CO2 humidified chamber. The differentiation of SH-SY5Y α-syn A53T cells was done by 10 µM retinoic acid for 7 days prior to subsequent experiments.
For the separation of Triton X-100 soluble and insoluble fractions for monitoring α-syn, cells were washed with PBS and lysed in Triton X-100 buffer (50 mM Tris / 150 mM NaCl / 100 mM EDTA / 1% Triton X-100, pH 7.6) containing protease and phosphatase inhibitors for 30 min on ice. The lysates were centrifuged at 12,000 rpm for 30 min, and the soluble supernatant was taken. The remaining pellets were washed with Triton X-100 buffer, followed by centrifugation at 12,000 rpm for 20 min. […] Immunoreactive bands were detected using ECL reagents (Thermo Fisher Scientific, 32,106). […] Densitometry of developed bands was analyzed with ImageJ (NIH, Bethesda).
A general note: In western blotting, separated proteins are transferred to a membrane and probed.

T2 sequence (Q13501 whole entry): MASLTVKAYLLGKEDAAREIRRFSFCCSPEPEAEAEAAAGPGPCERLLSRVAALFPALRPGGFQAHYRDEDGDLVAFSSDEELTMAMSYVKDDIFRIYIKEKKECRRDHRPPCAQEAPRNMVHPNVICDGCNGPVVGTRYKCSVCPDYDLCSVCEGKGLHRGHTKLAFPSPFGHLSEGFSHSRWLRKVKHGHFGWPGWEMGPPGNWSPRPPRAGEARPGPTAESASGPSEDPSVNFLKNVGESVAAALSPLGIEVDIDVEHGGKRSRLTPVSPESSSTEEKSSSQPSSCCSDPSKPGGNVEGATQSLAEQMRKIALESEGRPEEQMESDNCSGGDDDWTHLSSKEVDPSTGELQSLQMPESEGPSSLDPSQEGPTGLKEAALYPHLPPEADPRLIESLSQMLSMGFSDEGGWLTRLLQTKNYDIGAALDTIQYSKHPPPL

In the case of `Fc1ccc(COc2cccc(CNCCOCCOCCNc3cccc(-c4cc(-c5ccc6c(c5)OCO6)n[nH]4)c3)c2)cc1` [ATC161, 3-(3-(benzo[d][1,3]dioxol-5-yl)-1H-pyrazol-5-yl)-N-(2-(2-(2-((3-((4-fluorobenzyl)oxy)benzyl)amino)ethoxy)ethoxy)ethyl)aniline], the “degradation of high molecular weight α-syn aggregates” value in series [1] was “induced the degradation of high molecular weight α-syn aggregates”. Also, the “PLA+ signals of p62 with α-syn monomers” value at p62 and α-syn aggregates (cells transduced with α-syn monomers) is given as “failed to induce PLA^+ signals”. Besides, at p62 and α-syn aggregates (α-syn PFF-transduced cells), the “interaction between p62 and α-syn aggregates (PLA puncta)” value was “dramatically increased the number and sizes of PLA puncta”. Also, the half-life in series [2] (male, ICR, oral, mouse plasma, read-out: terminal elimination half-life (T1/2) (converted)) was 3.7 h. The systemic exposure in series [2] (oral administration, mice) came to 3299.3 ng·h/mL. In addition, the “p62 oligomerization compared with the other Autotac compounds” value on p62 [3] (1 μM, 24 h) is given as “most efficiently facilitated p62 oligomerization”. Moreover, the “concentration inducing p62 oligomerization” value at p62 [3] (dose-dependent up to 1,000 nM) is reported as ~ 1 nM. Further, the “lipidation of LC3 in the absence of p62” value on p62 [4] is recorded as “failed to induce the lipidation of LC3 into LC3-II”.
